Like-named read-outs stand apart in the source and are kept apart here.

From patent US20240245793A1, “PSD-95 INHIBITORS AND USES THEREOF” (priority 2021, published 2024) come the findings set out here.

One series has as its target T1, plasmin (Homo sapiens, UniProt P00747).
T1 construct: Tissue plasminogen factor (tPA), which generates plasmin from plasminogen
The experiment in a line: In vitro plasmin stability assay. The series is classed as in vitro ADME. Here is the method:
At selected time points during the incubation, the ligands were extracted from 80 μL of assay matrix by treatment with 80 μL of 50% acetonitrile (ACN). The samples were filtered and analysed by UPLC to determine the amount of ligand remaining. LC-MS analysis was performed to confirm ligand integrity and identify cleavage sites.

The nature of series [1]: In vitro plasma stability in undiluted pooled human plasma. It counts as in vitro ADME. The conditions noted are these: for T1/2: 100 μM ligand, 37° C., mean ± SEM (Table 13, FIG. 10). On the procedure:
At selected time points during the incubation, the ligands were extracted from the assay matrix by adding assay matrix to 6M Urea followed by precipitation using 20% TCA in acetone. After overnight incubation, the samples were filtered and analysed by UPLC to determine the amount of ligand remaining. LC-MS analysis was performed to confirm ligand integrity and identify cleavage sites.

A further series has as its target PDZ1-2 of PSD-95 (Homo sapiens, UniProt P78352). The experiment in a line: Fluorescence polarization (FP) competition assay, affinity to PDZ1-2 of PSD-95. It counts as binding. The settings on record: dimeric ligands fused to L-TAT and L-Arg9; mean ± SEM, n ≥ 3 (Table 5, FIG. 2). On the procedure: First, a saturation binding curve was obtained to determine KD values for the interaction between a fluorescent dimeric probe and PDZ1-2 of PSD-95. Increasing concentrations of PDZ1-2 (0.015-30 nM) were added to a constant concentration of the probe (0.5 nM). The fluorescence polarization (FP) of the sample was measured at excitation/emission wavelength of 635/670 nm and the generated FP values were fitted to a one site binding model using the software GraphPad Prism. […] The FP values were fitted to a one site competition (variable slope) model in GraphPad prism. The resulting IC50 values were converted to Ki values as described previously by Nikolovska-Coleska et al., Anal. Biochem., 2004, 332, 261).

[2] abbreviates: isolated enzyme plasmin, read-out: T1/2.

T1 sequence (P00747 581-810 limits assumed, species assumed): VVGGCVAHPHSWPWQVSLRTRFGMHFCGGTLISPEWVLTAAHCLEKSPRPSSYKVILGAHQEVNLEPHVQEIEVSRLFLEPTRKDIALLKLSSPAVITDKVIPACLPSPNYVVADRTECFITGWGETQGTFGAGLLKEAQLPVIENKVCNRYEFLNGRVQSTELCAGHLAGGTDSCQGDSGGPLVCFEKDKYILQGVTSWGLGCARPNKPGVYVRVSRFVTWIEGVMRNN
T1 sequence (P00747 97-580 partner limits assumed, species assumed): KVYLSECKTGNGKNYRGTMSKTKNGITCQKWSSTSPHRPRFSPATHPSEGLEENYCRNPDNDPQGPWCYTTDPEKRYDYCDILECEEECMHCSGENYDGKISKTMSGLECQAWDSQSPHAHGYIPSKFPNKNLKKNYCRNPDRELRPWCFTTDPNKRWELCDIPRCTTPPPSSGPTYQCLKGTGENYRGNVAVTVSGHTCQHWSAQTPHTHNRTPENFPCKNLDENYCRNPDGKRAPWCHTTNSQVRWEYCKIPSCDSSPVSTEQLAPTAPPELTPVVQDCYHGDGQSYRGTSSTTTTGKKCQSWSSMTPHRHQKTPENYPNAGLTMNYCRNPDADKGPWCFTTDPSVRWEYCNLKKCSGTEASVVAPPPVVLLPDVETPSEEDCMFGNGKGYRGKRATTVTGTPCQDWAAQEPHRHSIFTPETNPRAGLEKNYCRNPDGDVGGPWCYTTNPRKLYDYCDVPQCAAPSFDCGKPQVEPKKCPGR
Chain of PDZ1-2 of PSD-95 (P78352 61-249 limits assumed): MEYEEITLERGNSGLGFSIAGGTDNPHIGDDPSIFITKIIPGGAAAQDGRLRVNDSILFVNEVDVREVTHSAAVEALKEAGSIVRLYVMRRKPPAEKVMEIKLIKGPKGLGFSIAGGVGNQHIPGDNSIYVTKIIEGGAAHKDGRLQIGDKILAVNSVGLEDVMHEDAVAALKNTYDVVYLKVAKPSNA

In the case of `CC[C@H](C)[C@H](NC(=O)CCOCCOCCN(CCOCCOCCC(=O)N[C@H](C(=O)N[C@@H](CCC(=O)O)C(=O)N[C@H](C(=O)N[C@@H](CC(=O)O)C(=O)N[C@H](C(=O)O)C(C)C)[C@@H](C)O)[C@@H](C)CC)C(=O)[C@H](CCCNC(=N)N)NC(=O)[C@H](CCCNC(=N)N)NC(=O)[C@H](CCCNC(=N)N)NC(=O)[C@H](CCC(N)=O)NC(=O)[C@H](CCCNC(=N)N)NC(=O)[C@H](CCCNC(=N)N)NC(=O)[C@H](CCCCN)NC(=O)[C@H](CCCCN)NC(=O)[C@H](CCCNC(=N)N)NC(=O)CNC(=O)[C@@H](N)Cc1ccc(O)cc1)C(=O)N[C@@H](CCC(=O)O)C(=O)N[C@H](C(=O)N[C@@H](CC(=O)O)C(=O)N[C@H](C(=O)O)C(C)C)[C@@H](C)O` [Compound 8, L-TAT-NPEG4(IETDV)2, reference compound], the half-life at 100 μM on plasmin (plasmin (5 μg/mL) in PBS, read-out: T1/2) was 9.05 ± 1 h. This compound also yielded a T1/2 in series [1] of 24 ± 0 h.

As for `CC(=O)N[C@@H](Cc1ccc(O)cc1)C(=O)NCC(=O)N[C@@H](CCCNC(=N)N)C(=O)N[C@@H](CCCCN)C(=O)N[C@@H](CCCCN)C(=O)N[C@@H](CCCNC(=N)N)C(=O)N[C@@H](CCCNC(=N)N)C(=O)N[C@@H](CCC(N)=O)C(=O)N[C@@H](CCCNC(=N)N)C(=O)N[C@@H](CCCNC(=N)N)C(=O)N[C@@H](CCCNC(=N)N)C(=O)N(CCOCCOCCC(=O)N[C@@H](CCCCN)C(=O)N[C@@H](CCC(=O)O)C(=O)N[C@H](C(=O)N[C@H](C(=O)N[C@H](C(=O)O)C(C)C)[C@@H](C)O)[C@@H](C)O)CCOCCOCCC(=O)N[C@@H](CCCCN)C(=O)N[C@@H](CCC(=O)O)C(=O)N[C@H](C(=O)N[C@H](C(=O)N[C@H](C(=O)O)C(C)C)[C@@H](C)O)[C@@H](C)O` [Compound 13], on PDZ1-2 of PSD-95, the Ki was found to be 6.5 ± 0.7 nM. In addition, at plasmin (setting [2]), the half-life was 9.5 ± 3 h.

In turn, `CC(=O)N[C@@H](Cc1ccc(O)cc1)C(=O)NCC(=O)N[C@@H](CCCNC(=N)N)C(=O)N[C@@H](CCCCN)C(=O)N[C@@H](CCCCN)C(=O)N[C@@H](CCCNC(=N)N)C(=O)N[C@@H](CCCNC(=N)N)C(=O)N[C@@H](CCC(N)=O)C(=O)N[C@@H](CCCNC(=N)N)C(=O)N[C@@H](CCCNC(=N)N)C(=O)N[C@@H](CCCNC(=N)N)C(=O)N(CCOCCOCCC(=O)N[C@@H](CCCCN)C(=O)N[C@@H](CCC(=O)O)C(=O)N[C@H](C(=O)N[C@H](C(=O)N[C@H](C(=O)O)C(C)C)C(C)C)[C@@H](C)O)CCOCCOCCC(=O)N[C@@H](CCCCN)C(=O)N[C@@H](CCC(=O)O)C(=O)N[C@H](C(=O)N[C@H](C(=O)N[C@H](C(=O)O)C(C)C)C(C)C)[C@@H](C)O` [Compound 15] came in with a Ki at PDZ1-2 of PSD-95 of 2.1 ± 0.2 nM. Also, on plasmin (setting [2]), the half-life turned out to be 6.42 ± 2.17 h.

Regarding `CC(=O)N[C@@H](Cc1ccc(O)cc1)C(=O)NCC(=O)N[C@@H](CCCNC(=N)N)C(=O)N[C@@H](CCCCN)C(=O)N[C@@H](CCCCN)C(=O)N[C@@H](CCCNC(=N)N)C(=O)N[C@@H](CCCNC(=N)N)C(=O)N[C@@H](CCC(N)=O)C(=O)N[C@@H](CCCNC(=N)N)C(=O)N[C@@H](CCCNC(=N)N)C(=O)N[C@@H](CCCNC(=N)N)C(=O)N(CCOCCOCCC(=O)N[C@@H](CCCCN)C(=O)N[C@@H](CCC(=O)O)C(=O)N[C@H](C(=O)N[C@@H](CCCNC(=N)N)C(=O)N[C@H](C(=O)O)C(C)C)[C@@H](C)O)CCOCCOCCC(=O)N[C@@H](CCCCN)C(=O)N[C@@H](CCC(=O)O)C(=O)N[C@H](C(=O)N[C@@H](CCCNC(=N)N)C(=O)N[C@H](C(=O)O)C(C)C)[C@@H](C)O` [Compound 17], the Ki on PDZ1-2 of PSD-95 stood at 6.6 ± 0.6 nM. Also, the half-life on plasmin (setting [2]) was determined as 6.42 ± 2.17 h.

For the compound `CC[C@H](C)[C@H](NC(=O)CCOCCOCCN(CCOCCOCCC(=O)N[C@H](C(=O)N[C@@H](CO)C(=O)N[C@H](C(=O)N[C@@H](CC(=O)O)C(=O)N[C@H](C(=O)O)C(C)C)[C@@H](C)O)[C@@H](C)CC)C(=O)[C@H](CCCNC(=N)N)NC(=O)[C@H](CCCNC(=N)N)NC(=O)[C@H](CCCNC(=N)N)NC(=O)[C@H](CCC(N)=O)NC(=O)[C@H](CCCNC(=N)N)NC(=O)[C@H](CCCNC(=N)N)NC(=O)[C@H](CCCCN)NC(=O)[C@H](CCCCN)NC(=O)[C@H](CCCNC(=N)N)NC(=O)CNC(=O)[C@H](Cc1ccc(O)cc1)NC(C)=O)C(=O)N[C@@H](CO)C(=O)N[C@H](C(=O)N[C@@H](CC(=O)O)C(=O)N[C@H](C(=O)O)C(C)C)[C@@H](C)O` [Compound 19], the Ki at PDZ1-2 of PSD-95 is 36.1 ± 1.8 nM. The half-life on plasmin (setting [2]) stood at 8.9 ± 0.667 h.

As for `CC(=O)N[C@@H](Cc1ccc(O)cc1)C(=O)NCC(=O)N[C@@H](CCCNC(=N)N)C(=O)N[C@@H](CCCCN)C(=O)N[C@@H](CCCCN)C(=O)N[C@@H](CCCNC(=N)N)C(=O)N[C@@H](CCCNC(=N)N)C(=O)N[C@@H](CCC(N)=O)C(=O)N[C@@H](CCCNC(=N)N)C(=O)N[C@@H](CCCNC(=N)N)C(=O)N[C@@H](CCCNC(=N)N)C(=O)N(CCOCCOCCC(=O)N[C@H](C(=O)N[C@@H](CCC(=O)O)C(=O)N[C@H](C(=O)N[C@H](C(=O)N[C@H](C(=O)O)C(C)C)C(C)C)[C@@H](C)O)C(C)C)CCOCCOCCC(=O)N[C@H](C(=O)N[C@@H](CCC(=O)O)C(=O)N[C@H](C(=O)N[C@H](C(=O)N[C@H](C(=O)O)C(C)C)C(C)C)[C@@H](C)O)C(C)C` [Compound 21], the affinity at PDZ1-2 of PSD-95, expressed as Ki, was 15.8 ± 1.6 nM. Further, at plasmin (setting [2]), the half-life stood at 8.87 ± 0.683 h.

In the case of `CC(=O)N[C@@H](CCCNC(=N)N)C(=O)N[C@@H](CCCNC(=N)N)C(=O)N[C@@H](CCCNC(=N)N)C(=O)N[C@@H](CCCNC(=N)N)C(=O)N[C@@H](CCCNC(=N)N)C(=O)N[C@@H](CCCNC(=N)N)C(=O)N[C@@H](CCCNC(=N)N)C(=O)N[C@@H](CCCNC(=N)N)C(=O)N[C@@H](CCCNC(=N)N)C(=O)N(CCOCCOCCC(=O)N[C@@H](CCCCN)C(=O)N[C@@H](CCC(=O)O)C(=O)N[C@H](C(=O)N[C@@H](CC(C)C)C(=O)N[C@H](C(=O)O)C(C)C)[C@@H](C)O)CCOCCOCCC(=O)N[C@@H](CCCCN)C(=O)N[C@@H](CCC(=O)O)C(=O)N[C@H](C(=O)N[C@@H](CC(C)C)C(=O)N[C@H](C(=O)O)C(C)C)[C@@H](C)O` [Compound 23], the half-life at 100 μM on plasmin (isolated enzyme plasmin) was determined as 43.6 ± 4.6 h. In series [1], the T1/2 was 24 ± 0 h.

In turn, `CC(=O)N[C@@H](CCCNC(=N)N)C(=O)N[C@@H](CCCNC(=N)N)C(=O)N[C@@H](CCCNC(=N)N)C(=O)N[C@@H](CCCNC(=N)N)C(=O)N[C@@H](CCCNC(=N)N)C(=O)N[C@@H](CCCNC(=N)N)C(=O)N[C@@H](CCCNC(=N)N)C(=O)N(CCOCCOCCC(=O)N[C@@H](CCCCN)C(=O)N[C@@H](CCC(=O)O)C(=O)N[C@H](C(=O)N[C@@H](CC(C)C)C(=O)N[C@H](C(=O)O)C(C)C)[C@@H](C)O)CCOCCOCCC(=O)N[C@@H](CCCCN)C(=O)N[C@@H](CCC(=O)O)C(=O)N[C@H](C(=O)N[C@@H](CC(C)C)C(=O)N[C@H](C(=O)O)C(C)C)[C@@H](C)O` [Compound 67] yielded a T1/2 in series [1] of 24 ± 0 h.

`CC(=O)N[C@@H](CCCNC(=N)N)C(=O)N[C@@H](CCCNC(=N)N)C(=O)N[C@@H](CCCNC(=N)N)C(=O)N[C@@H](CCCNC(=N)N)C(=O)N[C@@H](CCCNC(=N)N)C(=O)N(CCOCCOCCC(=O)N[C@@H](CCCCN)C(=O)N[C@@H](CCC(=O)O)C(=O)N[C@H](C(=O)N[C@@H](CC(C)C)C(=O)N[C@H](C(=O)O)C(C)C)[C@@H](C)O)CCOCCOCCC(=O)N[C@@H](CCCCN)C(=O)N[C@@H](CCC(=O)O)C(=O)N[C@H](C(=O)N[C@@H](CC(C)C)C(=O)N[C@H](C(=O)O)C(C)C)[C@@H](C)O` [Compound 71] showed a half-life at 100 μM in series [1] (human) of 21.1 ± 2.3 h.

For orientation: Ki means the dissociation constant of the complex between target and ligand, obtained from inhibition or displacement. A higher Ki goes with a looser hold on the target.
